Measured values taken from patent publication US9371320B2, “Heterocyclic compound” (TAKEDA PHARMACEUTICAL COMPANY LIMITED, priority 2012, dated 2016).
Like-named read-outs stand apart in the source and are kept apart here.

Experiments:
Tyk2 = target: T1, Tyk2 (Homo sapiens, UniProt P29597); assay: Tyk2 enzyme inhibition test (LANCE method); format: biochemical; details: for inhibition at 1 µM: test compound 1 μM, read-out: Inhibitory rate (%) Tyk2 1 μM
T1 construct: purchased Invitrogen
Procedure, shortened: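 Recombinant Tyk2 (375 ng/mL stock) with ULight-JAK1 peptide (300 nM stock) and ATP (30 μM stock) in HEPES pH 7.5/MgCl2/EGTA/DTT buffer, 1 h at room temperature. Stopped with EDTA plus Eu-anti-phosphotyrosine antibody; TR-FRET read at 665 nm after 1 h. No-enzyme wells define 100% inhibition.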

JAK1 = target: T2, JAK1 (Homo sapiens, UniProt P23458); assay: JAK1 enzyme inhibition test (LANCE method); format: biochemical; details: for inhibition at 1 µM: test compound 1 μM, read-out: Inhibitory rate (%) JAK1 1 μM; for inhibition at 10 µM: read-out: Inhibitory rate (%) JAK1 10 μM
T2 construct: purchased Invitrogen
Procedure, shortened: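 TR-FRET (LANCE) kinase assay using JAK1 at 187.5 ng/mL, ULight-JAK1 peptide at 300 nM and ATP at 150 μM, given as solution concentrations before mixing. Buffer was 50 mM HEPES pH 7.5 with 10 mM MgCl2 and 2 mM DTT, and the reaction ran 1 h at room temperature. Eu anti-phosphotyrosine signal at 665 nm was expressed relative to a no-enzyme well, taken as 100% inhibition.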

[1] = test compound 10 μM (Ex. 182-220), beside Tyk2 1 μM

T2 sequence (P23458 whole entry): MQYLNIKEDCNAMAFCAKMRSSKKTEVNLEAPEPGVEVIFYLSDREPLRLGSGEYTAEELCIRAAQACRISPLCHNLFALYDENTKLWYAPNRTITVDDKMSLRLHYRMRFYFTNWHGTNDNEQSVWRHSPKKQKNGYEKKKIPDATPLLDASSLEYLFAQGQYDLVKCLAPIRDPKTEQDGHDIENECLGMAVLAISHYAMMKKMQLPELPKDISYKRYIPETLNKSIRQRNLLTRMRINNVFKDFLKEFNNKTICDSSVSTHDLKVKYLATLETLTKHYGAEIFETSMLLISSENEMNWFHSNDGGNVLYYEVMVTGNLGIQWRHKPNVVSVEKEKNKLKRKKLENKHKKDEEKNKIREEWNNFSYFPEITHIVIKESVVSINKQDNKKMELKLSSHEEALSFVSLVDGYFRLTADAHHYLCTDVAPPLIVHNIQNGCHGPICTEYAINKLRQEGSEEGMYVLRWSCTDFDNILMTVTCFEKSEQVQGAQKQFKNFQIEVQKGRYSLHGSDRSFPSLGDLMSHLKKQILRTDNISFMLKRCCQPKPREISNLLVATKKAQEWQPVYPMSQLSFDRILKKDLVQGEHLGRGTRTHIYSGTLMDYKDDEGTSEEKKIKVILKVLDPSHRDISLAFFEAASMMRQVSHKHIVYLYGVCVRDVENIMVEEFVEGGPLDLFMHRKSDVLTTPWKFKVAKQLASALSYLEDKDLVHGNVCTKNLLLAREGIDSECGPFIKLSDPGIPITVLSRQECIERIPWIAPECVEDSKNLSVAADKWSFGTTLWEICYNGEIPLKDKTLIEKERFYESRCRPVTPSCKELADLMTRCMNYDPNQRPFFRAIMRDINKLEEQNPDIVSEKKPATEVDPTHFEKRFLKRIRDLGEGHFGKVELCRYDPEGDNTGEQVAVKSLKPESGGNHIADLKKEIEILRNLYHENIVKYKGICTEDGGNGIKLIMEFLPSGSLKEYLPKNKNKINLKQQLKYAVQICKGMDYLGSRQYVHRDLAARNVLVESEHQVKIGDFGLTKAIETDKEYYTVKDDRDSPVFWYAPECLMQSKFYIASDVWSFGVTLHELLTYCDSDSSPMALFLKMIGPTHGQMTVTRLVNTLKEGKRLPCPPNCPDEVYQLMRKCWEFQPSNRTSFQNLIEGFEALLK
T1 sequence (P29597 whole entry): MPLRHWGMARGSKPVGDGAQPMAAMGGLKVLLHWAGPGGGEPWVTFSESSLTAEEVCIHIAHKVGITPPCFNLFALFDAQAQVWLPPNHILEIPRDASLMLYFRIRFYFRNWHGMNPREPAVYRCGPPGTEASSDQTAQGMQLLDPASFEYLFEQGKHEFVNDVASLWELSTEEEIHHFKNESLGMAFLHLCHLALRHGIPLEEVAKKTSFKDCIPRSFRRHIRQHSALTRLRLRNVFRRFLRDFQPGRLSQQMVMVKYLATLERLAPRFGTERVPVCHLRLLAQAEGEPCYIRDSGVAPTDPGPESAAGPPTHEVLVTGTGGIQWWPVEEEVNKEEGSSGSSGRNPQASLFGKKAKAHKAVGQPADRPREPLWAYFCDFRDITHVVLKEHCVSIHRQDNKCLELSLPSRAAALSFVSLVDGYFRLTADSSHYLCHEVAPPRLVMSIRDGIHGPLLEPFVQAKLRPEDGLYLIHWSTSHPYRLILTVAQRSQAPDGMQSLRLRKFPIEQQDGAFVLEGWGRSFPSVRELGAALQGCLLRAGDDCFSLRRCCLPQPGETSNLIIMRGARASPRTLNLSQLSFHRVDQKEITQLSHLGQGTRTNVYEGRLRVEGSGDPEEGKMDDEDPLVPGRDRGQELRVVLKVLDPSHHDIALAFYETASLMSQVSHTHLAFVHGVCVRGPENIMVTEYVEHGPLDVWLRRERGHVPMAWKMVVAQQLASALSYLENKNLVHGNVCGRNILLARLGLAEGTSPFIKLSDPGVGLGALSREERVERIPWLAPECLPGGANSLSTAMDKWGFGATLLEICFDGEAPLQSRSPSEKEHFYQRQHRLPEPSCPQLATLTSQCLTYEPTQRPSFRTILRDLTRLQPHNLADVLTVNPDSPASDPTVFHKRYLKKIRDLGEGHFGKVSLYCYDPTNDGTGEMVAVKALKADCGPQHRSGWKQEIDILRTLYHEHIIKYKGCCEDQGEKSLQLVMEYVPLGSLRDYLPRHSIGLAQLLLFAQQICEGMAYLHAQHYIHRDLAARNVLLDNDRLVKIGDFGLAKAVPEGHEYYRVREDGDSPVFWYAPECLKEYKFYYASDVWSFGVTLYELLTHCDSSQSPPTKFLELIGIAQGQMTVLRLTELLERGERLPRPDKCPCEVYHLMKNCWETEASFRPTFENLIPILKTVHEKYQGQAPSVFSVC

SMILES | inhibition at 1 µM (Tyk2) | inhibition at 1 µM (JAK1) | inhibition at 10 µM (JAK1; [1]) | inhibition at 10 µM (Tyk2; test compound 10 μM, read-out: Inhibitory rate (%) Tyk2 10 μM) | inhibition at 10 µM (JAK1; test compound 10 μM)
O=C(O)c1cc(-c2nn(-c3c(F)cccc3F)c3cc[nH]c(=O)c23)cs1 [Example 37, 4-(1-(2,6-difluorophenyl)-4-oxo-4,5-dihydro-1H-pyrazolo[4,3-c]pyridin-3-yl)thiophene-2-carboxylic acid] | 99% | 99% |  |  | 
NS(=O)(=O)c1ccc(-c2nn(C3CCC(=O)CC3)c3cc[nH]c(=O)c23)cc1 [Example 173, 4-(4-oxo-1-(4-oxocyclohexyl)-4,5-dihydro-1H-pyrazolo[4,3-c]pyridin-3-yl)benzenesulfonamide] | 96% | 99% |  |  | 
COc1cc(N)cc(F)c1-n1cc(-c2csc(C(N)=O)c2)c2c(=O)[nH]ccc21 [Example 302, 4-(1-(4-amino-2-fluoro-6-methoxyphenyl)-4-oxo-4,5-dihydro-1H-pyrrolo[3,2-c]pyridin-3-yl)thiophene-2-carboxamide] | 95% | 97% |  |  | 
CC(=O)N1CCC(c2ccc(-c3nn(-c4c(F)cccc4F)c4cc[nH]c(=O)c34)cc2)C(F)(F)C1 (stereo not shown) [Example 316, 3-(4-(1-acetyl-3,3-difluoropiperidin-4-yl)phenyl)-1-(2,6-difluorophenyl)-1,5-dihydro-4H-pyrazolo[4,3-c]pyridin-4-one] | 99% | 99% |  |  | 
CNC(=O)c1ccc(-c2nn(-c3c(F)cccc3F)c3c(Cl)c[nH]c(=O)c23)cc1 [Example 194, 4-(7-chloro-1-(2,6-difluorophenyl)-4-oxo-4,5-dihydro-1H-pyrazolo[4,3-c]pyridin-3-yl)-N-methylbenzamide] | 100% |  | 67% |  | 
O=c1[nH]ccc2c1c(-c1ccc([N+](=O)[O-])cc1)nn2C1CCCC1 [Example 57, 1-cyclopentyl-3-(4-nitrophenyl)-1,5-dihydro-4H-pyrazolo[4,3-c]pyridin-4-one] | 81% | 88% |  |  | 
O=C1CCC(=O)N1Cc1ccc(-c2nn(-c3c(F)cccc3F)c3c(Cl)c[nH]c(=O)c23)cc1 [Example 219, 1-(4-(7-chloro-1-(2,6-difluorophenyl)-4-oxo-4,5-dihydro-1H-pyrazolo[4,3-c]pyridin-3-yl)benzyl)pyrrolidine-2,5-dione] | 98% |  | 82% |  | 
O=c1[nH]cc(Br)c2c1c(-c1cn[nH]c1)nn2-c1c(F)cccc1F [Example 176, 7-bromo-1-(2,6-difluorophenyl)-3-(1H-pyrazol-4-yl)-1,5-dihydro-4H-pyrazolo[4,3-c]pyridin-4-one] | 100% | 95% |  |  | 
O=c1[nH]ccc2c1c(-c1cccc(F)c1)nn2C1CCCC1 [Example 55, 1-cyclopentyl-3-(3-fluorophenyl)-1,5-dihydro-4H-pyrazolo[4,3-c]pyridin-4-one] | 85% | 78% |  |  | 
CC(C)(C(N)=O)c1ccc(-c2nn(-c3c(F)cccc3F)c3c(Cl)c[nH]c(=O)c23)cc1 [Example 188, 2-(4-(7-chloro-1-(2,6-difluorophenyl)-4-oxo-4,5-dihydro-1H-pyrazolo[4,3-c]pyridin-3-yl)phenyl)-2-methylpropanamide] | 100% |  | 84% |  | 
CS(=O)(=O)N1CCN(c2ccc(-c3nn(-c4c(F)cccc4F)c4cc[nH]c(=O)c34)cc2)CC1 [Example 311, 1-(2,6-difluorophenyl)-3-(4-(4-(methylsulfonyl)piperazin-1-yl)phenyl)-1,5-dihydro-4H-pyrazolo[4,3-c]pyridin-4-one] | 99% | 95% |  |  | 
O=c1[nH]ccc2c1c(-c1ccc(N3CCOCC3)cc1)nn2C1CCC(F)(F)CC1 [Example 266, 1-(4,4-difluorocyclohexyl)-3-(4-(morpholin-4-yl)phenyl)-1,5-dihydro-4H-pyrazolo[4,3-c]pyridin-4-one] | 91% | 85% |  |  | 
NC(=O)c1cc(-c2nn(C3CCC4(CC3)OCCO4)c3cc[nH]c(=O)c23)cs1 [Example 148, 4-(1-(1,4-dioxaspiro[4.5]dec-8-yl)-4-oxo-4,5-dihydro-1H-pyrazolo[4,3-c]pyridin-3-yl)thiophene-2-carboxamide] | 98% | 99% |  |  | 
N#CCc1cccc(-c2nn(-c3c(F)cccc3F)c3c(Br)c[nH]c(=O)c23)c1 [Example 146, (3-(7-bromo-1-(2,6-difluorophenyl)-4-oxo-4,5-dihydro-1H-pyrazolo[4,3-c]pyridin-3-yl)phenyl)acetonitrile] | 98% | 69% |  |  | 
O=c1[nH]cc(Cl)c2c1c(C1CC1)nn2-c1c(F)cccc1F [Example 208, 7-chloro-3-cyclopropyl-1-(2,6-difluorophenyl)-1,5-dihydro-4H-pyrazolo[4,3-c]pyridin-4-one] |  |  |  | 83% | 28%
N#Cc1c[nH]c(=O)c2c(-c3csc(C(N)=O)c3)cn(C3CCCC3)c12 [Example 33, 4-(7-cyano-1-cyclopentyl-4-oxo-4,5-dihydro-1H-pyrrolo[3,2-c]pyridin-3-yl)thiophene-2-carboxamide] | 99% | 99% |  |  | 
CC1(Cn2nc(-c3ccc(S(N)(=O)=O)cc3)c3c(=O)[nH]ccc32)COC1 [Example 100, 4-(1-((3-methyloxetan-3-yl)methyl)-4-oxo-4,5-dihydro-1H-pyrazolo[4,3-c]pyridin-3-yl)benzenesulfonamide] | 77% | 96% |  |  | 
NC(=O)Cc1cc(-c2nn(-c3c(F)cccc3F)c3c(Cl)c[nH]c(=O)c23)cs1 [Example 160, 2-(4-(7-chloro-1-(2,6-difluorophenyl)-4-oxo-4,5-dihydro-1H-pyrazolo[4,3-c]pyridin-3-yl)-2-thienyl)acetamide] | 98% | 98% |  |  | 
O=c1[nH]ccc2c1c(-c1ccccc1)cn2C1CCCC1 [Example 1, 1-cyclopentyl-3-phenyl-1,5-dihydro-4H-pyrrolo[3,2-c]pyridin-4-one] | 51% | 40% |  |  | 
CC[C@H](COC)n1nc(-c2csc(C(N)=O)c2)c2c(=O)[nH]ccc21 [Example 263, 4-(1-((2R)-1-methoxybutan-2-yl)-4-oxo-4,5-dihydro-1H-pyrazolo[4,3-c]pyridin-3-yl)thiophene-2-carboxamide] | 90% | 97% |  |  | 
CCC(COC)n1cc(-c2ccc(C#N)cc2)c2c(=O)[nH]ccc21 (stereo not shown) [Example 24, 4-(1-(1-methoxybutan-2-yl)-4-oxo-4,5-dihydro-1H-pyrrolo[3,2-c]pyridin-3-yl)benzonitrile] | 33% | 35% |  |  | 
O=c1[nH]cc(Cl)c2c1c(-c1cccc(OCCO)c1)nn2-c1c(F)cccc1F [Example 168, 7-chloro-1-(2,6-difluorophenyl)-3-(3-(2-hydroxyethoxyl)phenyl)-1,5-dihydro-4H-pyrazolo[4,3-c]pyridin-4-one] | 97% | 46% |  |  | 
CN(C)NC(=O)c1ccc(-c2nn(-c3c(F)cccc3F)c3cc[nH]c(=O)c23)cc1 [Example 289, 4-(1-(2,6-difluorophenyl)-4-oxo-4,5-dihydro-1H-pyrazolo[4,3-c]pyridin-3-yl)-N′,N′-dimethylbenzhydrazide] | 99% | 92% |  |  | 
